Test results as given in patent US7235379B2, “Method and medium for the detection/identification of microorgranisms with esterase activity” (Bio Merieux, priority 2000, dated 2007).
“And” between values parts separate entries of the source, which are not always exact repeats. Equal values may be shown once. Where a name gives a salt, the structure may show the parent alone. Read-outs that look alike come from different tables or passages of the source.

How the values were obtained:
[1] = test system: Candida tropicalis 030; assay: Ex.3 colony coloration, 5-bromo-4-chloro-3-indolyl nonanoate 250 mg/l, DMSO/Tween 20; format: cell-based; note: key: 0: no activity; 0.1: trace of coloration; 0.5: very pale coloration; 1: distinct coloration of low intensity; 2: clear coloration of medium intensity; 3: intense coloration; 4: very intense coloration
Method: (§5) The esterase substrate tested is 5-bromo-4-chloro-3-indolyl nonanoate. A 40 g/l stock solution of substrate is prepared in a mixture of 40% dimethyl sulfoxide and 60% Tween 20. A sufficient volume is added to a supercooled MacConkey medium (without neutral red) to give a substrate concentration of 250 mg/l.

[2] = test system: Salmonella spp. 017
Method: (§1) The esterase substrate tested is 5-bromo-3-indolyl nonanoate. A 25 g/l stock solution of substrate is prepared in methanol to which 5 g/l of bile salts have been added. A sufficient volume is added to a supercooled MacConkey medium (without neutral red) to give a substrate concentration of 500 mg/l.
(§2) Microorganisms originating from the Applicant's collection were inoculated onto this medium from a 0.5 McFarland suspension by isolation in three quadrants. The dishes were incubated at 37° C. for 48 hours. The colonies formed were examined visually after 24 and 48 hours of incubation. The coloration of these colonies and the intensity of this coloration were noted.
(§3) Note: In the above Examples, the numbers following the strains correspond to the number of each strain referenced in the Applicant's collection. The intensity of coloration corresponds to an arbitrary scale defined as follows: […]

[3] = test system: Salmonella paratyphi A 006
Method: as §1, §2, §3

[4] = test system: Escherichia coli 002; assay: Ex.4 colony coloration, 5-bromo-3-indolyl nonanoate, DMSO/Tween 20, MacConkey; format: cell-based; parameters: key: —: absence of colour or intensity; details: 8 ml/l Tergitol 4
[5] = test system: Salmonella spp. 017; remark: listed apart in the source
Method: (§4) The esterase substrate tested is 5-bromo-3-indolyl nonanoate. A 40 g/l stock solution of substrate is prepared in a mixture of 40% dimethyl sulfoxide and 60% Tween 20. A sufficient volume is added to a supercooled MacConkey medium (without neutral red) to give a substrate concentration of 500 mg/l.
as §2, §3

[6] = test system: Salmonella paratyphi A 006; remark: listed apart in the source
Method: as §4, §2, §3

[7] = test system: Salmonella typhi 118
Method: as §4, §2, §3

[8] = test system: Pseudomonas aeruginosa 165; assay: Ex.1 colony coloration, 5-bromo-3-indolyl nonanoate, DMSO/Tween 20, MacConkey; format: cell-based
[9] = test system: Enterobacter cloacae 086; assay: Ex.2 colony coloration, 5-bromo-3-indolyl nonanoate, methanol/bile salts, MacConkey; format: cell-based; for intensity of coloration: key: 0: no activity; 0.1: trace of coloration; 0.5: very pale coloration; 1: distinct coloration of low intensity; 2: clear coloration of medium intensity; 3: intense coloration; 4: very intense coloration
[10] = test system: Salmonella arizonae 018; assay: Ex.1 colony coloration, 5-bromo-3-indolyl nonanoate, DMSO/Tween 20, MacConkey; format: cell-based
[11] = test system: Staphylococcus aureus 276; assay: Ex.3 colony coloration, 5-bromo-4-chloro-3-indolyl nonanoate 250 mg/l, DMSO/Tween 20; format: cell-based; note: key: 0: no activity; 0.1: trace of coloration; 0.5: very pale coloration; 1: distinct coloration of low intensity; 2: clear coloration of medium intensity; 3: intense coloration; 4: very intense coloration
Method: as §5

CCCCC(CC)CCC(CC(C)C)OS(=O)(=O)O (centres unmarked) [Tergitol 4, 7-ethyl-2-methyl-4-undecanoate hydrogensulfate or its sodium salt]
intensity of coloration ([1]; 0.001 ml/l, 24 h): 2
intensity of coloration ([1]; 0.001 ml/l, 48 h): 3
intensity of coloration ([1]; 0.01 ml/l, 24 h): 2
intensity of coloration ([1]; 0.01 ml/l, 48 h): 3
intensity of coloration ([1]; 0.1 ml/l, 24 h): 2
intensity of coloration ([1]; 0.1 ml/l, 48 h): 3
intensity of coloration ([1]; 1 ml/l (1st col), 24 h): 0.5
intensity of coloration ([1]; 1 ml/l (1st col), 48 h): 3
intensity of coloration ([1]; 1 ml/l (2nd col), 24 h): 0.5
intensity of coloration ([1]; 1 ml/l (2nd col), 48 h): 3
color ([2]; 2 ml/l, 24 h): gray
intensity of coloration ([2]; 2 ml/l, 24 h): 1
color ([2]; 2 ml/l, 48 h): gray
intensity of coloration ([2]; 2 ml/l, 48 h): 1.5
color ([2]; 4 ml/l, 24 h): gray
intensity of coloration ([2]; 4 ml/l, 24 h): 1
color ([2]; 4 ml/l, 48 h): gray
intensity of coloration ([2]; 4 ml/l, 48 h): 1.5
color ([2]; 8 ml/l, 24 h): gray
intensity of coloration ([2]; 8 ml/l, 24 h): 1
color ([2]; 8 ml/l, 48 h): gray
intensity of coloration ([2]; 8 ml/l, 48 h): 1.5
color ([2]; 16 ml/l, 24 h): gray
intensity of coloration ([2]; 16 ml/l, 24 h): 1
color ([2]; 16 ml/l, 48 h): gray
intensity of coloration ([2]; 16 ml/l, 48 h): 1.5
color ([3]; 2 ml/l, 24 h): gray
intensity of coloration ([3]; 2 ml/l, 24 h): 0.1
color ([3]; 2 ml/l, 48 h): gray
intensity of coloration ([3]; 2 ml/l, 48 h): 0.5
color ([3]; 4 ml/l, 24 h): gray
intensity of coloration ([3]; 4 ml/l, 24 h): 0.1
color ([3]; 4 ml/l, 48 h): gray
intensity of coloration ([3]; 4 ml/l, 48 h): 1
color ([4]; 24 h): —
color ([4]; 48 h): —
color ([5]; 2 ml/l, 24 h): gray
intensity of coloration ([5]; 2 ml/l, 24 h): 1
color ([5]; 2 ml/l, 48 h): gray
intensity of coloration ([5]; 2 ml/l, 48 h): 3
color ([5]; 4 ml/l, 24 h): gray
intensity of coloration ([5]; 4 ml/l, 24 h): 1.5
color ([5]; 4 ml/l, 48 h): gray
intensity of coloration ([5]; 4 ml/l, 48 h): 3.5
color ([5]; 8 ml/l, 24 h): gray
intensity of coloration ([5]; 8 ml/l, 24 h): 2
color ([5]; 8 ml/l, 48 h): gray
intensity of coloration ([5]; 8 ml/l, 48 h): 3
color ([5]; 16 ml/l, 24 h): gray
intensity of coloration ([5]; 16 ml/l, 24 h): 1
color ([5]; 16 ml/l, 48 h): gray
intensity of coloration ([5]; 16 ml/l, 48 h): 2
color ([6]; 2 ml/l, 24 h): gray
intensity of coloration ([6]; 2 ml/l, 24 h): 2
color ([6]; 2 ml/l, 48 h): gray
intensity of coloration ([6]; 2 ml/l, 48 h): 2
color ([6]; 4 ml/l, 24 h): gray
intensity of coloration ([6]; 4 ml/l, 24 h): 2
color ([6]; 4 ml/l, 48 h): gray
intensity of coloration ([6]; 4 ml/l, 48 h): 2.5
color ([6]; 8 ml/l, 24 h): gray
intensity of coloration ([6]; 8 ml/l, 24 h): 3
color ([6]; 8 ml/l, 48 h): gray
intensity of coloration ([6]; 8 ml/l, 48 h): 3
color ([6]; 16 ml/l, 24 h): gray
intensity of coloration ([6]; 16 ml/l, 24 h): 2
color ([6]; 16 ml/l, 48 h): gray
intensity of coloration ([6]; 16 ml/l, 48 h): 2
color [7]: gray
intensity of coloration ([7]; sodium salt): 3 and 2 and 3.5
color ([8]; 2 ml/l, 24 h): gray
intensity of coloration ([8]; 2 ml/l, 24 h): 3.5
color ([8]; 2 ml/l, 48 h): gray
intensity of coloration ([8]; 2 ml/l, 48 h): 3.5
color ([8]; 4 ml/l, 24 h): gray
intensity of coloration ([8]; 4 ml/l, 24 h): 4
color ([8]; 4 ml/l, 48 h): gray
intensity of coloration ([8]; 4 ml/l, 48 h): 4
color ([8]; 8 ml/l, 24 h): gray
intensity of coloration ([8]; 8 ml/l, 24 h): 4
color ([8]; 8 ml/l, 48 h): gray
intensity of coloration ([8]; 8 ml/l, 48 h): 4
color ([8]; 16 ml/l, 24 h): gray
intensity of coloration ([8]; 16 ml/l, 24 h): 4
color ([8]; 16 ml/l, 48 h): gray
intensity of coloration ([8]; 16 ml/l, 48 h): 4
color ([9]; 2 ml/l, 24 h): gray
intensity of coloration ([9]; 2 ml/l, 24 h): 0.5
color ([9]; 2 ml/l, 48 h): gray
intensity of coloration ([9]; 2 ml/l, 48 h): 2
color ([9]; 4 ml/l, 24 h): gray
intensity of coloration ([9]; 4 ml/l, 24 h): 1
color ([9]; 4 ml/l, 48 h): gray
intensity of coloration ([9]; 4 ml/l, 48 h): 3
color ([9]; 8 ml/l, 24 h): gray
intensity of coloration ([9]; 8 ml/l, 24 h): 0.5
color ([9]; 8 ml/l, 48 h): gray
intensity of coloration ([9]; 8 ml/l, 48 h): 1
color ([9]; 16 ml/l, 24 h): gray
intensity of coloration ([9]; 16 ml/l, 24 h): 0.5
color ([9]; 16 ml/l, 48 h): gray
intensity of coloration ([9]; 16 ml/l, 48 h): 1
color ([10]; 2 ml/l, 24 h): gray
intensity of coloration ([10]; 2 ml/l, 24 h): 2
color ([10]; 2 ml/l, 48 h): gray
intensity of coloration ([10]; 2 ml/l, 48 h): 2.5
color ([10]; 4 ml/l, 24 h): gray
intensity of coloration ([10]; 4 ml/l, 24 h): 3.5
color ([10]; 4 ml/l, 48 h): gray
intensity of coloration ([10]; 4 ml/l, 48 h): 3.5
color ([10]; 8 ml/l, 24 h): gray
intensity of coloration ([10]; 8 ml/l, 24 h): 3.5
color ([10]; 8 ml/l, 48 h): gray
intensity of coloration ([10]; 8 ml/l, 48 h): 3.5
color ([10]; 16 ml/l, 24 h): gray
intensity of coloration ([10]; 16 ml/l, 24 h): 3.5
color ([10]; 16 ml/l, 48 h): gray
intensity of coloration ([10]; 16 ml/l, 48 h): 4
intensity of coloration ([11]; 0.001 ml/l, 24 h): 2
intensity of coloration ([11]; 0.001 ml/l, 48 h): 2
intensity of coloration ([11]; 0.01 ml/l, 24 h): 2
intensity of coloration ([11]; 0.01 ml/l, 48 h): 3
intensity of coloration ([11]; 0.1 ml/l, 24 h): 3
intensity of coloration ([11]; 0.1 ml/l, 48 h): 3
intensity of coloration ([11]; 1 ml/l (1st col), 24 h): 2
intensity of coloration ([11]; 1 ml/l (1st col), 48 h): 3
intensity of coloration ([11]; 1 ml/l (2nd col), 24 h): 2
intensity of coloration ([11]; 1 ml/l (2nd col), 48 h): 3
